Laboratory results taken from ChEMBL document CHEMBL1134166, “The identification of alpha-ketoamides as potent inhibitors of hepatitis C virus NS3-4A proteinase” (Bioorg Med Chem Lett, 2001).
*1 amine or outer side, *2 acyl side, *3 side chain or, on linkers, in order; H or OH if unused. Where a SMILES comes first, the peptide text is derived from it. [ ]: non-standard residue; d: D form. The star is where a group is joined. X1 = O=C(C(=O)[*:2])[C@H](CC(F)(F)F)N[*:1]; NH(1S-phenylpropyl) = CC[C@H](N*)c1ccccc1; NH(1R-phenylethyl) = C[C@@H](N*)c1ccccc1; NH(1S-phenylethyl) = C[C@H](N*)c1ccccc1; Phe(2-Me) = Cc1ccccc1C[C@H](N)C(=O)O; NleCONH2 = CCCC[C@H](N*)C(=O)C(N)=O; NH(4-OH-benzyl) = Oc1ccc(CN*)cc1; X3 = CCCC[C@@H](N*)C(=O)C(N)=O; X5 = CC[C@H](N*)c1ccc2ccccc2c1; X6 = C[C@H](N*)c1ccc2ccccc2c1; Suc = O=C(CCC(=O)[*:2])[*:1]; Tle = CC(C)(C)[C@H](N)C(=O)O; X4 = CC(C)[C@H](N*)c1ccccc1; NHBn = c1ccc(CN*)cc1; X2 = COc1cccc(CN*)c1

Molecular target: T1, Neutrophil elastase (Homo sapiens, UniProt P08246)
T1 sequence (P08246 whole entry): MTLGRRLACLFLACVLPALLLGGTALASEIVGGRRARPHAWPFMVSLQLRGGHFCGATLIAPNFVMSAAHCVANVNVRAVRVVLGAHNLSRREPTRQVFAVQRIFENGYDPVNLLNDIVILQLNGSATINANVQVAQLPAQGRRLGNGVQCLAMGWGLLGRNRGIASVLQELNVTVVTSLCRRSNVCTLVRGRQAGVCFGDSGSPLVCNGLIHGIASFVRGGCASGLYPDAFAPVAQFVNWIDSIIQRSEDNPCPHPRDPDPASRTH
Test: Compound was tested for inhibition of Elastase

IC50 | Compound
12000 nM | CCCC[C@@H](NC(=O)[C@H](CC(C)C)NC(=O)[C@@H](NC(=O)[C@H](Cc1ccccc1C)NC(=O)[C@H](CCC(=O)O)NC(=O)[C@H](CC(=O)O)NC(=O)CCC(=O)O)C(C)(C)C)C(=O)C(N)=O (Suc-DE[Phe(2-Me)][Tle]L-X3)

Molecular target: Hepatitis C virus serine protease, NS3/NS4A (Hepatitis C virus, UniProt A3EZI9+D2K2A8)
Test: (§1) Inhibition of hepatitis c virus Non structural protein 3 protease/Non structural protein 4A protease
Format: protein-complex assay, Hepacivirus hominis

Sequence of Hepatitis C virus serine protease, NS3/NS4A (Hepatitis C virus, UniProt A3EZI9+D2K2A8) (D2K2A8 whole entry): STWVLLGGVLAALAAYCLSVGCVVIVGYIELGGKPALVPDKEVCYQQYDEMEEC
Sequence of Hepatitis C virus serine protease, NS3/NS4A (Hepatitis C virus, UniProt A3EZI9+D2K2A8) (A3EZI9 whole entry): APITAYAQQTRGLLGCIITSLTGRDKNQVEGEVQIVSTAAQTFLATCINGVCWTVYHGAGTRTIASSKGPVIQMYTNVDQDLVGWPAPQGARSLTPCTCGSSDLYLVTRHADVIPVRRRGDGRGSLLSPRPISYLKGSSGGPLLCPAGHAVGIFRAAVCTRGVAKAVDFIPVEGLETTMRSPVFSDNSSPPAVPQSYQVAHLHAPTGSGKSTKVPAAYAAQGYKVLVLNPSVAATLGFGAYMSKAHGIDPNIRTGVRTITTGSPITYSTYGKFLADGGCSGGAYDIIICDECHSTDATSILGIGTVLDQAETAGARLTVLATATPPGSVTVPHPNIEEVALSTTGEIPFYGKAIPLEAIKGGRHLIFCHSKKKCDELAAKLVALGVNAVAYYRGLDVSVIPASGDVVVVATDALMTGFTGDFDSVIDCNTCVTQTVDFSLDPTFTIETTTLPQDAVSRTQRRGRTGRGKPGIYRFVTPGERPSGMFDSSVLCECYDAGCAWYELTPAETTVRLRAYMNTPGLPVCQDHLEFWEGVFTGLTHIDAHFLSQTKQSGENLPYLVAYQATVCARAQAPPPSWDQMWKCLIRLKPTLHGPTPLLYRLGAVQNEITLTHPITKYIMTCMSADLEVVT

IC50 | Compound
11 nM | CCCC[C@H](NC(=O)[C@H](CC(C)C)NC(=O)[C@@H](NC(=O)[C@H](Cc1ccccc1C)NC(=O)[C@H](CCC(=O)O)NC(=O)[C@H](CC(=O)O)NC(=O)CCC(=O)O)C(C)(C)C)C(=O)C(N)=O (Suc-DE[Phe(2-Me)][Tle]L-NleCONH2)

Molecular target: Hepatitis C virus serine protease, NS3/NS4A (Hepatitis C virus, UniProt D2K2A8+A3EZI9)
Test: as §1
Format: protein-complex assay, Hepacivirus hominis

Sequence of Hepatitis C virus serine protease, NS3/NS4A (Hepatitis C virus, UniProt D2K2A8+A3EZI9) (D2K2A8 whole entry): as the sequence (D2K2A8 whole entry) above
Sequence of Hepatitis C virus serine protease, NS3/NS4A (Hepatitis C virus, UniProt D2K2A8+A3EZI9) (A3EZI9 whole entry): as the sequence (A3EZI9 whole entry) above

Compound | IC50
COc1cccc(CNC(=O)C(=O)[C@H](CC(F)(F)F)NC(=O)[C@H](CC(C)C)NC(=O)[C@@H](NC(=O)[C@H](Cc2ccccc2C)NC(=O)[C@H](CCC(=O)O)NC(=O)[C@H](CC(=O)O)NC(=O)CCC(=O)O)C(C)(C)C)c1 (Suc-DE[Phe(2-Me)][Tle]L[X1]-X2) | 6 nM
Cc1ccccc1C[C@H](NC(=O)[C@H](CCC(=O)O)NC(=O)[C@H](CC(=O)O)NC(=O)CCC(=O)O)C(=O)N[C@H](C(=O)N[C@@H](CC(C)C)C(=O)N[C@@H](CC(F)(F)F)C(=O)C(=O)N[C@H](c1ccccc1)C(C)C)C(C)(C)C (Suc-DE[Phe(2-Me)][Tle]L[X1]-X4) | 7 nM
CC[C@H](NC(=O)C(=O)[C@H](CC(F)(F)F)NC(=O)[C@H](CC(C)C)NC(=O)[C@@H](NC(=O)[C@H](Cc1ccccc1C)NC(=O)[C@H](CCC(=O)O)NC(=O)[C@H](CC(=O)O)NC(=O)CCC(=O)O)C(C)(C)C)c1ccc2ccccc2c1 (Suc-DE[Phe(2-Me)][Tle]L[X1]-X5) | 8 nM
Cc1ccccc1C[C@H](NC(=O)[C@H](CCC(=O)O)NC(=O)[C@H](CC(=O)O)NC(=O)CCC(=O)O)C(=O)N[C@H](C(=O)N[C@@H](CC(C)C)C(=O)N[C@@H](CC(F)(F)F)C(=O)C(=O)N[C@@H](C)c1ccc2ccccc2c1)C(C)(C)C (Suc-DE[Phe(2-Me)][Tle]L[X1]-X6) | 4 nM
Cc1ccccc1C[C@H](NC(=O)[C@H](CCC(=O)O)NC(=O)[C@H](CC(=O)O)NC(=O)CCC(=O)O)C(=O)N[C@H](C(=O)N[C@@H](CC(C)C)C(=O)N[C@@H](CC(F)(F)F)C(=O)C(=O)N[C@@H](C)c1ccccc1)C(C)(C)C (Suc-DE[Phe(2-Me)][Tle]L[X1]-{NH(1S-phenylethyl)}) | 4 nM

The remaining lines, values ahead:

IC50 | Compound
4 nM | Cc1ccccc1C[C@H](NC(=O)[C@H](CCC(=O)O)NC(=O)[C@H](CC(=O)O)NC(=O)CCC(=O)O)C(=O)N[C@H](C(=O)N[C@@H](CC(C)C)C(=O)N[C@@H](CC(F)(F)F)C(=O)C(=O)NCc1ccccc1)C(C)(C)C (Suc-DE[Phe(2-Me)][Tle]L[X1]-NHBn)
1100 nM | Cc1ccccc1C[C@H](NC(=O)[C@H](CCC(=O)O)NC(=O)[C@H](CC(=O)O)NC(=O)CCC(=O)O)C(=O)N[C@H](C(=O)N[C@@H](CC(C)C)C(=O)N[C@@H](CC(F)(F)F)C(=O)C(=O)N[C@H](C)c1ccccc1)C(C)(C)C (Suc-DE[Phe(2-Me)][Tle]L[X1]-{NH(1R-phenylethyl)})
7 nM | CC[C@H](NC(=O)C(=O)[C@H](CC(F)(F)F)NC(=O)[C@H](CC(C)C)NC(=O)[C@@H](NC(=O)[C@H](Cc1ccccc1C)NC(=O)[C@H](CCC(=O)O)NC(=O)[C@H](CC(=O)O)NC(=O)CCC(=O)O)C(C)(C)C)c1ccccc1 (Suc-DE[Phe(2-Me)][Tle]L[X1]-{NH(1S-phenylpropyl)})
4 nM | Cc1ccccc1C[C@H](NC(=O)[C@H](CCC(=O)O)NC(=O)[C@H](CC(=O)O)NC(=O)CCC(=O)O)C(=O)N[C@H](C(=O)N[C@@H](CC(C)C)C(=O)N[C@@H](CC(F)(F)F)C(=O)C(=O)NCc1ccc(O)cc1)C(C)(C)C (Suc-DE[Phe(2-Me)][Tle]L[X1]-{NH(4-OH-benzyl)})

Molecular target: Trypsin (Homo sapiens, UniProt P07477+P07478+P35030)
Test: Compound was tested for inhibition of trypsin
Format: protein assay

IC50 | Compound
> 200000 nM | CCCC[C@H](NC(=O)[C@H](CC(C)C)NC(=O)[C@@H](NC(=O)[C@H](Cc1ccccc1C)NC(=O)[C@H](CCC(=O)O)NC(=O)[C@H](CC(=O)O)NC(=O)CCC(=O)O)C(C)(C)C)C(=O)C(N)=O (Suc-DE[Phe(2-Me)][Tle]L-NleCONH2)
